Data on three molecules can be found in patent US5834453A, “Methods for the manufacture and use of antimicrobial sterol conjugates” (Lehigh University, priority 1997, dated 1998).

Values after ≈ are worked out from the molar mass of the structure shown.

One data set concerns C. albicans (90028). Briefly: MIC, micro-broth dilution. Particulars: Candida albicans, 35° C., 24 hours, read-out: ANTIMICROBIAL ACTIVITY (MIC). The class given is cell-based. The procedure:
(§1) The antimicrobial activity of the compounds according to the present invention were compared with the results obtained for squalamine as reported in Proc. Nat. Acad. Sci. USA 90:1354 (1993), supra, the disclosure of which is incorporated in toto herein. The data reported in the following table is the minimum inhibitory concentration (MIC) required for complete inhibition of microbial growth. The MIC was determined utilizing known micro-broth dilution methods in which inocula of 10^6 /ml of the test organism were incubated in 0.5× trypticase soy broth at 35° C. for 24 hours. MIC's were also tested under various pH conditions, with calcium chloride or magnesium chloride, or with immobilized horse serum.
(§2) The numbers in parentheses contained in the table correspond to accession numbers with the American Type Culture Collection (reference strains were either obtained from the American Type Culture Collection or from the Microbiology Laboratory at Memorial Sloan-Kettering Cancer Center; Bacterial strains were maintained on Columbia 5% sheep blood agar plates, and fungi were maintained on Sabouraud Dextrose agar plates).
For orientation: In broth dilution the organism is exposed to a series of concentrations in liquid medium.

In the next data set the test system is C. neoformans (M68979). Briefly: MIC, micro-broth dilution. It counts as cell-based. Particulars: Cryptococcus neoformans, 24 h, read-out: ANTIMICROBIAL ACTIVITY (MIC). The procedure:
as §1, §2

In a further data set the test system is E. coli (25922). In words: MIC, micro-broth dilution. The class given is cell-based. Particulars: Escherichia coli, 35° C., 24 hours, read-out: ANTIMICROBIAL ACTIVITY (MIC). The procedure: as §1, §2
In the next data set the test system is P. aeruginosa (2853). Briefly: MIC, micro-broth dilution. The class given is cell-based. Particulars: Pseudomonas aeruginosa, 24 h, read-out: ANTIMICROBIAL ACTIVITY (MIC). The procedure: as §1, §2
The next data set deals with P. vulgaris (13315). Briefly: MIC, micro-broth dilution. The class given is cell-based. Particulars: Proteus vulgaris, 35° C., 24 hours, read-out: ANTIMICROBIAL ACTIVITY (MIC). The protocol: as §1, §2
The test system of a further data set is S. aureus (25923). Briefly: MIC, micro-broth dilution. The class given is cell-based. The settings on record: Staphylococcus aureus, 35° C., 24 hours, read-out: ANTIMICROBIAL ACTIVITY (MIC). The protocol:
as §1, §2

The next data set deals with S. aureus (29213). In words: MIC, micro-broth dilution. The class given is cell-based. The settings on record: Staphylococcus aureus, 24 h, read-out: ANTIMICROBIAL ACTIVITY (MIC). The procedure:
as §1, §2

Another data set has as its system S. epidermidis (12228). Briefly: MIC, micro-broth dilution. The class given is cell-based. The settings on record: Staphylococcus epidermidis, 35° C., 24 hours, read-out: ANTIMICROBIAL ACTIVITY (MIC). The procedure: as §1, §2
The test system of the next data set is S. marcescens (13880). In words: MIC, micro-broth dilution. The class given is cell-based. The settings on record: Serratia marcescens, 24 h, read-out: ANTIMICROBIAL ACTIVITY (MIC). The protocol: as §1, §2
Data set [1] is described as follows: Hemolytic activity, minimal hemolytic concentration (MHC). It counts as cell-based, sheep. Particulars: for MCC at 24 h: sheep, red blood cells. The protocol:
Hemolytic activity of the squalamine mimics according to the present invention were also studied by incubating sheep red blood cells for 24 hours at 37° C. in saline (final concentration of 0.5%) with or without respective concentrations of the squalamine mimics. The minimal hemolytic concentration (MHC) was determined as the lowest concentration of a mimic that raised visible hemolysis.

The subject of another data set is A. fumigatus (H1120). In words: MIC, micro-broth dilution. The class given is cell-based. The settings on record: Aspergillus fumigatus, 35° C., 24 hours, read-out: ANTIMICROBIAL ACTIVITY (MIC). The protocol: as §1, §2
A further data set concerns A. fumigatus (H29709). In words: MIC, micro-broth dilution. It counts as cell-based. Particulars: Aspergillus fumigatus, 35° C., 24 hours, read-out: ANTIMICROBIAL ACTIVITY (MIC). The protocol:
as §1, §2

The next data set concerns C. neoformans (90012). In words: MIC, micro-broth dilution. It counts as cell-based. Particulars: Cryptococcus neoformans, 24 h, read-out: ANTIMICROBIAL ACTIVITY (MIC). The procedure:
as §1, §2

Another data set has as its system E. cloacae (13047). In words: MIC, micro-broth dilution. The class given is cell-based. Particulars: Enterobacter cloacae, 35° C., 24 hours, read-out: ANTIMICROBIAL ACTIVITY (MIC). The protocol: as §1, §2
For another data set, the system named is E. faecalis (29212). In words: MIC, micro-broth dilution. The class given is cell-based. The settings on record: Enterococcus faecalis, 35° C., 24 hours, read-out: ANTIMICROBIAL ACTIVITY (MIC). The protocol: as §1, §2
The next data set relates to E. faecium (T6480-9). In words: MIC, micro-broth dilution. The class given is cell-based. The settings on record: Enterococcus faecium, 35° C., 24 hours, read-out: ANTIMICROBIAL ACTIVITY (MIC). The protocol: as §1, §2
A further data set relates to K. pneumoniae (13883). In words: MIC, micro-broth dilution. It counts as cell-based. The settings on record: Klebsiella pneumoniae, 24 h, read-out: ANTIMICROBIAL ACTIVITY (MIC). The procedure:
as §1, §2

The test system of another data set is P. aeruginosa (10145). Briefly: MIC, micro-broth dilution. It counts as cell-based. The settings on record: Pseudomonas aeruginosa, 35° C., 24 hours, read-out: ANTIMICROBIAL ACTIVITY (MIC). The protocol:
as §1, §2

For a further data set, the system named is S. agalactiae (13813). Briefly: MIC, micro-broth dilution. It counts as cell-based. Particulars: Streptococcus agalactiae, 35° C., 24 hours, read-out: ANTIMICROBIAL ACTIVITY (MIC). The procedure:
as §1, §2

The test system of the next data set is S. aureus (H20809). Briefly: MIC, micro-broth dilution. The class given is cell-based. The settings on record: Staphylococcus aureus, 24 h, read-out: ANTIMICROBIAL ACTIVITY (MIC). The protocol: as §1, §2
Another data set relates to S. pneumoniae (6305). Briefly: MIC, micro-broth dilution. The class given is cell-based. Particulars: Streptococcus pneumoniae, 35° C., 24 hours, read-out: ANTIMICROBIAL ACTIVITY (MIC). The protocol: as §1, §2
A further data set has as its system S. pyrogenes (19615). Briefly: MIC, micro-broth dilution. The class given is cell-based. Particulars: 24 h, read-out: ANTIMICROBIAL ACTIVITY (MIC). The protocol:
as §1, §2

For the molecule `C[C@H](C(=O)NCCCNCCCCNCCCN)[C@H]1CC[C@H]2[C@@H]3CC=C4C[C@@H](O)CC[C@]4(C)[C@H]3CC[C@]12C` [SM-1, 23,24-Bisnor-3β-ol-5-cholenic acid 3-ol spermine conjugate], the MIC in the data set on C. albicans (90028) was determined as 100 µg/mL (≈ 188 µM); in the data set on C. neoformans (M68979), 6.25 µg/mL (≈ 11.8 µM); with E. coli (25922) it was 12.5 µg/mL (≈ 23.5 µM); in the data set with P. aeruginosa (2853), 1.56 µg/mL (≈ 2.94 µM); in the data set with P. vulgaris (13315), 25 µg/mL (≈ 47.1 µM); in the data set on S. aureus (25923) it was 3.13 µg/mL (≈ 5.9 µM). The MIC in the data set on S. aureus (29213) was 6.25 µg/mL (≈ 11.8 µM); with S. epidermidis (12228), 1.56 µg/mL (≈ 2.94 µM); with S. marcescens (13880), above 100 µg/mL. The minimal hemolytic concentration (MHC) at 24 h in data set [1] (sheep red blood cells, 24 hours at 37° C. in saline) was determined as 100 µg/mL.

On to `C[C@H](C(=O)NCCNCCNCCN)[C@H]1CC[C@H]2[C@@H]3CC=C4C[C@@H](O)CC[C@]4(C)[C@H]3CC[C@]12C` [SM-5], for which the MIC with A. fumigatus (H1120), in the data set on A. fumigatus (H29709), with C. albicans (90028), in the data set with C. neoformans (90012), with C. neoformans (M68979) and in the data set on E. cloacae (13047) was above 100 µg/mL in each case. In addition, the MIC was 100 µg/mL (≈ 211 µM) in the data set with E. coli (25922); above 100 µg/mL with E. faecalis (29212); above 100 µg/mL in the data set with E. faecium (T6480-9); above 100 µg/mL in the data set on K. pneumoniae (13883); 25 µg/mL (≈ 52.7 µM) in the data set with P. aeruginosa (10145); 25 µg/mL (≈ 52.7 µM) in the data set with P. aeruginosa (2853). Further, the MIC was above 100 µg/mL in the data set with P. vulgaris (13315); above 100 µg/mL in the data set with S. agalactiae (13813); 50 µg/mL (≈ 105 µM) in the data set on S. aureus (25923); 100 µg/mL (≈ 211 µM) in the data set with S. aureus (29213); above 100 µg/mL with S. aureus (H20809); 25 µg/mL (≈ 52.7 µM) with S. epidermidis (12228). Also, the values for the MIC in the data set with S. marcescens (13880), with S. pneumoniae (6305) and in the data set on S. pyrogenes (19615) were above 100 µg/mL, above 100 µg/mL and 6.25 µg/mL (≈ 13.2 µM), respectively. Further, the MCC at 24 h in data set [1] is above 100 µg/mL.

For the molecule `C[C@H](CCC(=O)NCCCNCCCCNCCCN)[C@H]1CC[C@H]2[C@@H]3CC[C@@H]4C[C@H](OS(=O)(=O)O)CC[C@]4(C)[C@H]3C[C@H](OS(=O)(=O)O)[C@]12C` [SM-8], the minimal inhibitory concentration (MIC) in the data set on A. fumigatus (H1120) was above 100 µg/mL; in the data set with A. fumigatus (H29709), above 100 µg/mL; with C. albicans (90028), 100 µg/mL (≈ 136 µM); with C. neoformans (90012), 50 µg/mL (≈ 67.8 µM); with C. neoformans (M68979), 50 µg/mL (≈ 67.8 µM); in the data set with E. cloacae (13047) it was above 100 µg/mL. The MIC in the data set on E. coli (25922) is above 100 µg/mL; in the data set with E. faecalis (29212), above 100 µg/mL; in the data set on E. faecium (T6480-9), 100 µg/mL (≈ 136 µM); in the data set on K. pneumoniae (13883), 50 µg/mL (≈ 67.8 µM); with P. aeruginosa (10145) it was 100 µg/mL (≈ 136 µM); in the data set on P. aeruginosa (2853), 25 µg/mL (≈ 33.9 µM). Moreover, the MIC was found to be 50 µg/mL (≈ 67.8 µM) in the data set on P. vulgaris (13315); 50 µg/mL (≈ 67.8 µM) in the data set on S. agalactiae (13813); 25 µg/mL (≈ 33.9 µM) with S. aureus (25923); 25 µg/mL (≈ 33.9 µM) in the data set with S. aureus (29213); 25 µg/mL (≈ 33.9 µM) with S. aureus (H20809); 25 µg/mL (≈ 33.9 µM) in the data set on S. epidermidis (12228). For the same molecule, the MIC is above 100 µg/mL in the data set with S. marcescens (13880), 50 µg/mL (≈ 67.8 µM) with S. pneumoniae (6305) and 6.25 µg/mL (≈ 8.48 µM) in the data set on S. pyrogenes (19615). The MCC at 24 h in [1] is above 100 µg/mL.

As usually defined, the MIC is the lowest concentration that inhibits growth of the organism.
